Measured values: patent publication US6645918B1, “N-([1,2,4]triazoloazinyl)thiophenesulfonamide compounds and their use as herbicides” (Dow AgroSciences LLC, priority 2000, dated 2003)

Columns and labels:
Type in all cases: in vivo
[1] = tested on: cocklebur (Xanthium strumarium); experiment: Preemergence herbicidal activity, cocklebur; settings: soil spray, visual after 3 weeks, 0 no injury, 100 complete kill or no germination
Procedure, shortened: (§1)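 First, pots were seeded. Next, the soil was sprayed with compound solutions in water/Tween 155 (0.1%) containing acetone/DMSO, up to 4.48 kg/ha. Then pots were held in a greenhouse with roughly 15 h days at 23-29 °C and nights at 22-28 °C. Finally, injury was scored visually after 3 weeks.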

[2] = tested on: pigweed (Amaranthus retroflexus); experiment: Postemergence herbicidal activity, pigweed; settings: foliar spray, visual after 2 weeks, 0 no injury, 100 complete kill
Procedure, shortened: (§2)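 Greenhouse-grown plants at first or second true leaf stage were sprayed with compound in aqueous acetone/DMSO/isopropanol carrier containing crop oil concentrate and Triton X-155; 1 ppm corresponds to about 1 g/ha. Plants were sub-irrigated, and visual injury versus untreated plants was scored 0–100% after 2 weeks.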

viola (Viola tricolor) = experiment: Postemergence herbicidal activity, viola; settings: foliar spray, visual after 2 weeks, 0 no injury, 100 complete kill
Procedure, shortened: as §2

[3] = tested on: blackgrass (Alopecurus myosuroides); experiment: Preemergence herbicidal activity, blackgrass; settings: soil spray, visual after 3 weeks, 0 no injury, 100 complete kill or no germination
Procedure, shortened: as §1

[4] = tested on: velvetleaf (Abutilion theophrasti); experiment: Preemergence herbicidal activity, velvetleaf; settings: soil spray, visual after 3 weeks, 0 no injury, 100 complete kill or no germination
Procedure, shortened: as §1

[5] = tested on: morningglory (Ipomoea hederacea); experiment: Preemergence herbicidal activity, morningglory; settings: soil spray, visual after 3 weeks, 0 no injury, 100 complete kill or no germination
Procedure, shortened: as §1

[6] = tested on: wild poinsettia (Euphorbia heterophylla); experiment: Preemergence herbicidal activity, wild poinsettia; settings: soil spray, visual after 3 weeks, 0 no injury, 100 complete kill or no germination
Procedure, shortened: as §1

[7] = tested on: Rox orange sorghum (Sorghum bicolor); experiment: Preemergence herbicidal activity, Rox orange sorghum; settings: soil spray, visual after 3 weeks, 0 no injury, 100 complete kill or no germination
Procedure, shortened: as §1

[8] = tested on: crabgrass (Digitaria sanguinalis); experiment: Preemergence herbicidal activity, crabgrass; settings: soil spray, visual after 3 weeks, 0 no injury, 100 complete kill or no germination
Procedure, shortened: as §1

[9] = tested on: lambsquarters (Chenopodium album); experiment: Preemergence herbicidal activity, lambsquarters; settings: soil spray, visual after 3 weeks, 0 no injury, 100 complete kill or no germination
Procedure, shortened: as §1

[10] = tested on: chickweed (Stellaria media); experiment: Postemergence herbicidal activity, chickweed; settings: foliar spray, visual after 2 weeks, 0 no injury, 100 complete kill
Procedure, shortened: as §2

[11] = tested on: pigweed (Amaranthus retroflexus); experiment: Preemergence herbicidal activity, pigweed; settings: soil spray, visual after 3 weeks, 0 no injury, 100 complete kill or no germination
Procedure, shortened: as §1

[12] = tested on: cocklebur (Xanthium strumarium); experiment: Postemergence herbicidal activity, cocklebur; settings: foliar spray, visual after 2 weeks, 0 no injury, 100 complete kill
Procedure, shortened: as §2

[13] = tested on: barnyardgrass (Echinochloa crus-galli); experiment: Preemergence herbicidal activity, barnyardgrass; settings: soil spray, visual after 3 weeks, 0 no injury, 100 complete kill or no germination
Procedure, shortened: as §1

[14] = tested on: wild buckwheat (Polygonum convolvulus); experiment: Postemergence herbicidal activity, wild buckwheat; settings: foliar spray, visual after 2 weeks, 0 no injury, 100 complete kill
Procedure, shortened: as §2

[15] = tested on: giant foxtail (Setaria faberi); experiment: Postemergence herbicidal activity, giant foxtail; settings: foliar spray, visual after 2 weeks, 0 no injury, 100 complete kill
Procedure, shortened: as §2

[16] = tested on: blackgrass (Alopecurus myosuroides); experiment: Postemergence herbicidal activity, blackgrass; settings: foliar spray, visual after 2 weeks, 0 no injury, 100 complete kill
Procedure, shortened: as §2

[17] = tested on: velvetleaf (Abutilion theophrasti); experiment: Postemergence herbicidal activity, velvetleaf; settings: foliar spray, visual after 2 weeks, 0 no injury, 100 complete kill
Procedure, shortened: as §2

[18] = tested on: morningglory (Ipomoea hederacea); experiment: Postemergence herbicidal activity, morningglory; settings: foliar spray, visual after 2 weeks, 0 no injury, 100 complete kill
Procedure, shortened: as §2

[19] = tested on: lambsquarters (Chenopodium album); experiment: Postemergence herbicidal activity, lambsquarters; settings: foliar spray, visual after 2 weeks, 0 no injury, 100 complete kill
Procedure, shortened: as §2

[20] = tested on: Rox orange sorghum (Sorghum bicolor); experiment: Postemergence herbicidal activity, Rox orange sorghum; settings: foliar spray, visual after 2 weeks, 0 no injury, 100 complete kill
Procedure, shortened: as §2

[21] = tested on: giant foxtail (Setaria faberi); experiment: Preemergence herbicidal activity, giant foxtail; settings: soil spray, visual after 3 weeks, 0 no injury, 100 complete kill or no germination
Procedure, shortened: as §1

wild oats (Avena fatua) [22] = experiment: Postemergence herbicidal activity, wild oats; settings: foliar spray, visual after 2 weeks, 0 no injury, 100 complete kill
Procedure, shortened: as §2

wild oats (Avena fatua) [23] = experiment: Preemergence herbicidal activity, wild oats; settings: soil spray, visual after 3 weeks, 0 no injury, 100 complete kill or no germination
Procedure, shortened: as §1

## COc1csc(Cl)c1S(=O)(=O)Nc1nc2c(OC)cnc(OC)n2n1 [Compound 18]
[1]; 4.4 g/Ha
  XANST preemergence injury score 0-100: 90%
[2]; 15.6 ppm
  AMARE postemergence injury score 0-100: 100%
Viola (Viola tricolor); 15.6 ppm
  VIOTR postemergence injury score 0-100: 100%
[3]; 4.4 g/Ha
  ALOMY preemergence injury score 0-100: 100%
[4]; 4.4 g/Ha
  ABUTH preemergence injury score 0-100: 90%
[5]; 4.4 g/Ha
  IPOHE preemergence injury score 0-100: 80%
[6]; 4.4 g/Ha
  EPHHL preemergence injury score 0-100: 90%
[7]; 4.4 g/Ha
  SORBI preemergence injury score 0-100: 100%
[8]; 4.4 g/Ha
  DIGSA preemergence injury score 0-100: 98%
[9]; 4.4 g/Ha
  CHEAL preemergence injury score 0-100: 100%
[10]; 15.6 ppm
  STEME postemergence injury score 0-100: 90%
[11]; 4.4 g/Ha
  AMARE preemergence injury score 0-100: 95%
[12]; 15.6 ppm
  XANST postemergence injury score 0-100: 100%
[13]; 4.4 g/Ha
  ECHCG preemergence injury score 0-100: 100%
[14]; 15.6 ppm
  POLCO postemergence injury score 0-100: 95%
[15]; 15.6 ppm
  SETFA postemergence injury score 0-100: 90%
[16]; 15.6 ppm
  ALOMY postemergence injury score 0-100: 70%
[17]; 15.6 ppm
  ABUTH postemergence injury score 0-100: 85%
[18]; 15.6 ppm
  IPOHE postemergence injury score 0-100: 75%
[19]; 15.6 ppm
  CHEAL postemergence injury score 0-100: 90%
[20]; 15.6 ppm
  SORBI postemergence injury score 0-100: 100%
[21]; 4.4 g/Ha
  SETFA preemergence injury score 0-100: 100%
Wild oats (Avena fatua) [22]; 15.6 ppm
  AVEFA postemergence injury score 0-100: 95%
Wild oats (Avena fatua) [23]; 4.4 g/Ha
  AVEFA preemergence injury score 0-100: 80%

## COc1cc(OC)n2nc(NS(=O)(=O)c3c(OC)csc3Cl)nc2n1 [Compound 19]
[1]; 8.8 g/Ha
  XANST preemergence injury score 0-100: 50%
[2]; 15.6 ppm
  AMARE postemergence injury score 0-100: 100%
Viola (Viola tricolor); 15.6 ppm
  VIOTR postemergence injury score 0-100: 100%
[3]; 8.8 g/Ha
  ALOMY preemergence injury score 0-100: 95%
[4]; 8.8 g/Ha
  ABUTH preemergence injury score 0-100: 95%
[5]; 8.8 g/Ha
  IPOHE preemergence injury score 0-100: 90%
[6]; 8.8 g/Ha
  EPHHL preemergence injury score 0-100: 90%
[7]; 8.8 g/Ha
  SORBI preemergence injury score 0-100: 95%
[8]; 8.8 g/Ha
  DIGSA preemergence injury score 0-100: 100%
[9]; 8.8 g/Ha
  CHEAL preemergence injury score 0-100: 90%
[10]; 15.6 ppm
  STEME postemergence injury score 0-100: 95%
[11]; 8.8 g/Ha
  AMARE preemergence injury score 0-100: 75%
[12]; 15.6 ppm
  XANST postemergence injury score 0-100: 95%
[13]; 8.8 g/Ha
  ECHCG preemergence injury score 0-100: 95%
[14]; 15.6 ppm
  POLCO postemergence injury score 0-100: 95%
[15]; 15.6 ppm
  SETFA postemergence injury score 0-100: 100%
[16]; 15.6 ppm
  ALOMY postemergence injury score 0-100: 70%
[17]; 15.6 ppm
  ABUTH postemergence injury score 0-100: 80%
[18]; 15.6 ppm
  IPOHE postemergence injury score 0-100: 80%
[19]; 15.6 ppm
  CHEAL postemergence injury score 0-100: 100%
[20]; 15.6 ppm
  SORBI postemergence injury score 0-100: 100%
[21]; 8.8 g/Ha
  SETFA preemergence injury score 0-100: 100%
Wild oats (Avena fatua) [22]; 15.6 ppm
  AVEFA postemergence injury score 0-100: 100%
Wild oats (Avena fatua) [23]; 8.8 g/Ha
  AVEFA preemergence injury score 0-100: 100%

## COc1csc(Cl)c1S(=O)(=O)Nc1nc2c(Cl)cnc(OC)n2n1 [Compound 20]
[1]; 17.5 g/Ha
  XANST preemergence injury score 0-100: 60%
[2]; 31.3 ppm
  AMARE postemergence injury score 0-100: 95%
Viola (Viola tricolor); 31.3 ppm
  VIOTR postemergence injury score 0-100: 90%
[3]; 17.5 g/Ha
  ALOMY preemergence injury score 0-100: 90%
[4]; 17.5 g/Ha
  ABUTH preemergence injury score 0-100: 80%
[5]; 17.5 g/Ha
  IPOHE preemergence injury score 0-100: 70%
[6]; 17.5 g/Ha
  EPHHL preemergence injury score 0-100: 50%
[7]; 17.5 g/Ha
  SORBI preemergence injury score 0-100: 90%
[8]; 17.5 g/Ha
  DIGSA preemergence injury score 0-100: 85%
[9]; 17.5 g/Ha
  CHEAL preemergence injury score 0-100: 70%
[10]; 31.3 ppm
  STEME postemergence injury score 0-100: 85%
[11]; 17.5 g/Ha
  AMARE preemergence injury score 0-100: 80%
[12]; 31.3 ppm
  XANST postemergence injury score 0-100: 100%
[13]; 17.5 g/Ha
  ECHCG preemergence injury score 0-100: 95%
[14]; 31.3 ppm
  POLCO postemergence injury score 0-100: 90%
[15]; 31.3 ppm
  SETFA postemergence injury score 0-100: 50%
[16]; 31.3 ppm
  ALOMY postemergence injury score 0-100: 30%
[17]; 31.3 ppm
  ABUTH postemergence injury score 0-100: 85%
[18]; 31.3 ppm
  IPOHE postemergence injury score 0-100: 75%
[19]; 31.3 ppm
  CHEAL postemergence injury score 0-100: 75%
[20]; 31.3 ppm
  SORBI postemergence injury score 0-100: 85%
[21]; 17.5 g/Ha
  SETFA preemergence injury score 0-100: 50%
Wild oats (Avena fatua) [22]; 31.3 ppm
  AVEFA postemergence injury score 0-100: 70%
Wild oats (Avena fatua) [23]; 17.5 g/Ha
  AVEFA preemergence injury score 0-100: 90%
